Assay results reported in patent US20050096323A1, “Diketopiperazine derivatives to inhibit thrombin” (NovoScience Pharma Inc., priority 1999, published 2005).
Each block holds one molecule with its values, some of them ahead of it.

Key:
SD rats [1] = assay: Weight of deep vein thrombosis (inferior vena cava thrombi) in rats; format: in vivo, rat; settings: 1.25 mg/kg i.v., 4 hours
Experimental: The drug was administered immediately after operation and, 4 hours later, the thrombi were collected and weighted.

[2] = molecular target: T1, tissue plasminogen activator (tPA) (Homo sapiens, UniProt P00750); assay: tPA inhibition constant (Ki), fluorogenic substrate assay; format: biochemical; settings: substrate Boc-L-(p-F) FPR-ANSNH-C2H5
T1 construct: purchased Sigma
Experimental: (§1) The activity and selectivity of the present invention can be identified by determination of the inhibition constant (Ki) for serine proteases such thrombin and trypsin and fibrinolytic enzymes such as urokinase, plasmin and tissue plasminogen activator (tPA). All of enzymes are purchased from Sigma. The general assay conditions are as follows. The fluorogenic substrates are dissolved in DMSO and diluted using assay buffer containing 50 mM Tris.HCl (pH 7.8 at 25° C.), 0.1 M NaCl and 0.1% polyethylene glycol 8000 (PEG 8000). […] The assays were conducted using Hitachi F2500 spectrophotometer under ambient temperature and at the excitation and emission wavelengths of 383 nm and 455 nm, respectively. The typical progressive data of the enzymatic assays are shown in FIGS. 1-3, and the determination of inhibition constant (Ki) is shown in FIG. 4.

plasmin = molecular target: T2, plasmin (Homo sapiens, UniProt P00747); assay: Plasmin inhibition constant (Ki), fluorogenic substrate assay; format: biochemical; settings: substrate D-Ala-Leu-Lys-AMC
T2 construct: purchased Sigma
Experimental: as §1

urokinase = molecular target: T3, urokinase (Homo sapiens, UniProt P00749); assay: Urokinase inhibition constant (Ki), fluorogenic substrate assay; format: biochemical; settings: substrate N-Cbz-Gly-Gly-Arg-AMC
T3 construct: purchased Sigma
Experimental: as §1

SD rats [3] = assay: RT, TT, PT, APTT and FIB in rat plasma after administration; format: in vivo; design: FIB (Fibrillation) / RT (Clot Retraction Time) / TT (Thrombin Time): unit not given here; settings: 2.5 mg/kg i.v.
Experimental: Blood was taken at 0.5 h and 1.5 h after i.v. injection and at 1 h and 3 h after i.g. and plasma RT,TT,PT,APTT and FIB were determined.

SD rats [4] = assay: Acute myocardial infarction by coronary artery ligation in rats; format: in vivo, rat; settings: for S point in electrocardiogram / T wave in electrocardiogram: reference drug 0.125 mg/kg i.v.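 For CK (u/ml): blood collected at end of 6 h (i.v.) or 8 h (intraduodenal) ECG observation.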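 For LDH (u/ml): blood collected at end of 6 h (i.v.) or 8 h (intraduodenal) ECG observation.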
Experimental: The drugs were administered 8 to 10 min after the coronary artery was ligated.

ICR mice = assay: Clotting time (CT) of mice whole blood after administration; format: in vivo
Experimental: Blood samples were collected using the capillary method 0.5 h and 1.5 h after i.v. injections and 1 h and 3 h after i.g. and clotting time of whole blood was measured.

thrombin = molecular target: T4, thrombin (Homo sapiens, UniProt P00734); assay: Thrombin inhibition constant (Ki), fluorogenic substrate assay; format: biochemical; settings: Table II, method of example 9
T4 construct: purchased Sigma

[5] = 0 min after ligation (before drug)
[6] = serum, reference drug, 0.125 mg/kg i.v.

T2 sequence (P00747 581-810 limits assumed, species assumed): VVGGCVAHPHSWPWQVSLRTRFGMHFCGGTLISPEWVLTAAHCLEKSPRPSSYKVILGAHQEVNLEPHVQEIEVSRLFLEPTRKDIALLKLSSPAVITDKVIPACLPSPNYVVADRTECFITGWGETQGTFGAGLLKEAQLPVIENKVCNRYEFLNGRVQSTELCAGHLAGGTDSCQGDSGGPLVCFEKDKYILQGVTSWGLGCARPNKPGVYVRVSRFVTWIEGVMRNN
T2 sequence (P00747 97-580 partner limits assumed, species assumed): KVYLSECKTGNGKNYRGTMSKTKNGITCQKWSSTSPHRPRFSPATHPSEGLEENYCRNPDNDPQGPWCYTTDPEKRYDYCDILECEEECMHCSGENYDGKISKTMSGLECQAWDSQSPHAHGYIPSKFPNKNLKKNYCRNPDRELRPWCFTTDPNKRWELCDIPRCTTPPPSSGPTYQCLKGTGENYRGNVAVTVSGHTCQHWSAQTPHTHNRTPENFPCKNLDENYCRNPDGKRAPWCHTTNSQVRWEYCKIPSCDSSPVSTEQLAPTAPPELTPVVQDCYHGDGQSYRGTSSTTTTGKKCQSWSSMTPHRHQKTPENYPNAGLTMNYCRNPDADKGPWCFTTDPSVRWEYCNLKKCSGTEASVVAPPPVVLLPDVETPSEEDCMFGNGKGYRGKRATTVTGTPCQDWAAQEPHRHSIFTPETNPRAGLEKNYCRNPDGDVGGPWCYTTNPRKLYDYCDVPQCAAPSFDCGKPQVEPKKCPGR
T1 sequence (P00750 36-562, species assumed): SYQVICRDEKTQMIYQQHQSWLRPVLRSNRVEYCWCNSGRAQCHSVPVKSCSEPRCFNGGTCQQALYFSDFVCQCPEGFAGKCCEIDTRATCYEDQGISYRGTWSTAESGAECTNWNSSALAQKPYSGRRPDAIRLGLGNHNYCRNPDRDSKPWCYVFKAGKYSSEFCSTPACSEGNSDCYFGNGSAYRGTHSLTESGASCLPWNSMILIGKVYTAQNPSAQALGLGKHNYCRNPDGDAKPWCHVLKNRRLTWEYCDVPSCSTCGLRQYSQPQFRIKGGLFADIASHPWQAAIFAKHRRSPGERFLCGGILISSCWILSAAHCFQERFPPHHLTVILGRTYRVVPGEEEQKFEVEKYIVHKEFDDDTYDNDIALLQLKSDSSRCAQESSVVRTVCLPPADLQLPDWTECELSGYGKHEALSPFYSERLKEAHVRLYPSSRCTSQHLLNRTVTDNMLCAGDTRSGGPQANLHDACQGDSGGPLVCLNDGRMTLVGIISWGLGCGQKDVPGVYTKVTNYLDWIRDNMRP

Compound: CC1CNc2c(cccc2S(=O)(=O)N[C@@H](CCCNC(=N)N)C(=O)N2CC[C@@H](C)C[C@@H]2C(=O)O)C1 (stereo partly shown) [Argatroban, reference compound]
Thrombi (mg) Dry weight (SD rats [1]): 6.26 ± 3.72 mg
Thrombi (mg) Wet weight (SD rats [1]): 18.04 ± 8.99 mg
Ki [2]: 777 µM
Ki (plasmin): 372 µM
Ki (urokinase): 999 µM
APTT (Activated Partial Prothromboplastin Time) (SD rats [3]; 0.5 h): 37.9 ± 10.2
PT (Prothrombin Time) (SD rats [3]; 0.5 h): 37.9 ± 8.6
RT (Clot Retraction Time) (SD rats [3]; 0.5 h): 91.2 ± 15.0
TT (Thrombin Time) (SD rats [3]; 0.5 h): 72.9 ± 20.1
APTT (Activated Partial Prothromboplastin Time) (SD rats [3]; 1.5 h): 30.1 ± 6.5
FIB (Fibrillation) (SD rats [3]; 1.5 h): 4.0 ± 0.9
PT (Prothrombin Time) (SD rats [3]; 1.5 h): 29.5 ± 8.5
RT (Clot Retraction Time) (SD rats [3]; 1.5 h): 77.4 ± 10.6
TT (Thrombin Time) (SD rats [3]; 1.5 h): 50.4 ± 12.3
S point in electrocardiogram (SD rats [4]; [5]): 0.35 ± 0.16
T wave in electrocardiogram (SD rats [4]; [5]): 0.23 ± 0.16
S point in electrocardiogram (SD rats [4]; 10 min after ligation): 0.36 ± 0.20
T wave in electrocardiogram (SD rats [4]; 10 min after ligation): 0.21 ± 0.18
S point in electrocardiogram (SD rats [4]; 30 min after ligation): 0.26 ± 0.15
T wave in electrocardiogram (SD rats [4]; 30 min after ligation): 0.16 ± 0.18
S point in electrocardiogram (SD rats [4]; 6 h after ligation): 0.19 ± 0.10
T wave in electrocardiogram (SD rats [4]; 6 h after ligation): 0.11 ± 0.10
Infarction Area (%) (SD rats [4]; reference drug, 0.125 mg/kg i.v.): 23.55 ± 7.95 %
CK (u/ml) (SD rats [4]; [6]): 55.92 ± 11.46 u/ml
LDH (u/ml) (SD rats [4]; [6]): 6259.5 ± 308.6 u/ml
CT (clotting time of whole blood) (ICR mice; 2.5 mg/kg i.v. group, before administration): 133.28 ± 26.21
CT (clotting time of whole blood) (ICR mice; 2.5 mg/kg i.v., 0.5 h): 170.33 ± 28.34
CT (clotting time of whole blood) (ICR mice; 2.5 mg/kg i.v., 1.5 h): 156.11 ± 32.08

Ki (thrombin): 0.061 µM
Compound: CCC1CCN2C(=O)C(CCCNC(=N)N)N(S(=O)(=O)c3cccc4c3NCC(C)C4)C(=O)C2C1 (stereo not shown) [compound 2]

Ki (thrombin): 1.58 µM
Compound: CC1CNc2c(cccc2S(=O)(=O)N2C(=O)C3CC(C(C)(C)C)CCN3C(=O)C2CCCNC(=N)N)C1 (stereo not shown) [compound 4]

Ki (thrombin): 0.91 µM
Compound: CC1CNc2c(cccc2S(=O)(=O)N2C(=O)C3CC(c4ccccc4)CCN3C(=O)C2CCCNC(=N)N)C1 (stereo not shown) [compound 3]
